Data: patent publication US7786142B2, “Heterocyclic compounds as pSTAT3/IL-6 inhibitors” (Orchid Research Laboratories, Ltd., priority 2005, dated 2010)

Key:
[1] = system: NCIH460, HCT116, MDAMB-231/U 251; experiment: Anti-cancer screen, mean GI50 over the cell lines; assay type: cell-based
Procedure: (§1) Experimental drugs are screened for anti-cancer activity in three cell lines for their GI50, TGI and LC50 values (using five concentrations for each compound). The cell lines are maintained in DMEM containing 10% fetal bovine serum. 96 well micro titer plates are inoculated with cells in 100 μL for 24 hours at 37° C., 5% CO2, 95% air and 100% relative humidity. 5000 HCT116 cells/well, 5000 NCIH460 cells/well and 5000 U251 cells/well are plated. A separate plate with these cell lines is also inoculated to determine cell viability before the addition of the compounds (T0), (See Table I).
(§2) Following 24-hours incubation, experimental drugs are added to the 96 well plates. Each plate contains one of the above cell lines and the following in triplicate: five different concentrations (0.01, 0.1, 1, 10 and 100 μM) of four different compounds, appropriate dilutions of a cytotoxic standard and control (untreated) wells. Compounds are dissolved in DMSO to make 20 mM stock solutions on the day of drug addition and frozen at −20° C. Serial dilutions of these 20 mM stock solutions are made in complete growth medium such that 100 μL of these drug solutions in medium, of final concentrations equaling 0.01, 0.1, 1, 10 and 100 μM can be added to the cells in triplicate. Standard drugs whose anti-cancer activity has been well documented and which are regularly used are Doxorubicin and SAHA, (See Table I).
(§3) For T0 measurement, 24 hours after seeding the cells, 10 μL of 3-(4,5-Dimethyl-2-thiazolyl)-2,5-diphenyl-2H-tetrazolium (MTT) solution per well is added and incubation carried out for 3 hours at 37° C., 5% CO2, 95% air and 100% relative humidity, protected from light. Cells incubated with compounds for 48 hours are treated similarly except with the addition of 20 μL MTT solution per well and a subsequent incubation under the same conditions. After 3 hours of MTT incubation, well contents are aspirated carefully followed by addition of 150 μL DMSO per well. Plates are agitated to ensure solution of the formazan crystals in DMSO and absorbance read at 570 nm, (See Table I).
(§4) Percent growth is calculated for each compound's concentration relative to the control and zero measurement wells (T0; viability right before compound addition). If a test well's O.D. value is greater than the T0 measurement for that cell line % Growth=(test−zero)/(control−zero)×100

MDAMB-231/U 251 = experiment: Anti-cancer screen (MTT), MDAMB-231/U 251 cells; assay type: cell-based; settings: MDAMB-231/U 251, 48 hours, concentrations tested 0.01-100 μM; for CC50: read-out: LC50 (the source's name)
Procedure: as §1, §2, §3, §4

NCIH460 cells = experiment: Anti-cancer screen (MTT), NCIH460 cells; assay type: cell-based; settings: Homo sapiens, NCI-H460, NCIH460, 48 hours, concentrations tested 0.01-100 μM; for CC50: read-out: LC50 (the source's name)
Procedure: as §1, §2, §3, §4

HCT116 cells = experiment: Anti-cancer screen (MTT), HCT116 cells; assay type: cell-based; settings: Homo sapiens, HCT-116, HCT116, 48 hours, concentrations tested 0.01-100 μM
Procedure: as §1, §2, §3, §4

| melting point | SMILES | also measured |
| --- | --- | --- |
| 166 to 169 °C | COc1ccc(CC(=O)N2CCN(CC(O)COc3cccc4[nH]c5ccccc5c34)CC2)cc1 (stereo not drawn) |  |
| 93 to 96 °C | O=C(Cc1c(F)c(F)c(F)c(F)c1F)N1CCN(CC(O)COc2cccc3[nH]c4ccccc4c23)CC1 (stereo not drawn) |  |
| 111 to 113 °C | O=C(Cc1ccc(O)c(F)c1)N1CCN(CC(O)COc2cccc3[nH]c4ccccc4c23)CC1 (stereo not drawn) |  |
| 79 to 81 °C | O=C(Cc1ccc(F)cc1)N1CCN(CC(O)COc2cccc3[nH]c4ccccc4c23)CC1 (stereo not drawn) |  |
|  | OC(COc1cccc2[nH]c3ccccc3c12)CN1CCNCC1 (stereo not drawn) [Example 3, 1-(9H-carbazol-4-yloxy)-3-piperazin-1-ylpropan-2-ol] | GI50 [1]: 29.7 µM; GI50 (MDAMB-231/U 251): 55 µM; IC (TGI) (MDAMB-231/U 251): 77 µM; CC50 (MDAMB-231/U 251): > 100 µM; GI50 (NCIH460 cells): 27 µM; IC (TGI) (NCIH460 cells): 54 µM; CC50 (NCIH460 cells): 80 µM; GI50 (HCT116 cells): 7 µM; IC (TGI) (HCT116 cells): 36 µM; LC50 (concentration for 50% net cell kill relative to T0) (HCT116 cells): 72 µM |
|  | OC(COc1cccc2[nH]c3ccccc3c12)CN1CCc2sccc2C1 (stereo not drawn) [Example 4, 1-(9H-carbazol-4-yloxy)-3-(6,7-dihydrothieno[3,2-c]pyridin-5(4H)-yl)propan-2-ol] | GI50 [1]: 28 µM; GI50 (MDAMB-231/U 251): 34 µM; IC (TGI) (MDAMB-231/U 251): 59 µM; CC50 (MDAMB-231/U 251): 84 µM; GI50 (NCIH460 cells): 18 µM; IC (TGI) (NCIH460 cells): 47 µM; CC50 (NCIH460 cells): 80 µM; GI50 (HCT116 cells): 32 µM; IC (TGI) (HCT116 cells): 57 µM; LC50 (concentration for 50% net cell kill relative to T0) (HCT116 cells): 82 µM |
| 57 to 62 °C | OC(COc1cccc2[nH]c3ccccc3c12)CN1CCN(Cc2nccs2)CC1 (stereo not drawn) [Example 28, 1-(9H-carbazol-4-yloxy)-3-{4-[(thiazol-2-yl)methyl]piperazin-1-yl}propan-2-ol] |  |
| 51 to 56 °C | OC(COc1cccc2[nH]c3ccccc3c12)CN1CCN(CC2CC2)CC1 (stereo not drawn) [Example 29, 1-(9H-carbazol-4-yloxy)-3-[4-(cyclopropylmethyl)piperazin-1-yl]propan-2-ol] |  |
| 68 to 70 °C | OC(COc1cccc2[nH]c3ccccc3c12)CN1CCN(Cc2ccc(Br)cc2F)CC1 (stereo not drawn) [Example 32, 1-(9H-carbazol-4-yloxy)-3-[4-(4-bromo-2-fluorobenzyl)piperazin-1-yl]propan-2-ol] |  |
| 69 to 71 °C | CSc1ccc(CN2CCN(CC(O)COc3cccc4[nH]c5ccccc5c34)CC2)cc1 (stereo not drawn) [Example 33, 1-(9H-carbazol-4-yloxy)-3-[4-(4-methylthiobenzyl)piperazin-1-yl]propan-2-ol] |  |
| 119 to 122 °C | COc1cc(OC)c(CN2CCN(CC(O)COc3cccc4[nH]c5ccccc5c34)CC2)c(OC)c1 (stereo not drawn) [Example 34, 1-(9H-carbazol-4-yloxy)-3-[4-(2,4,6-trimethoxybenzyl)piperazin-1-yl]propan-2-ol] |  |
| 140 to 144 °C | O=C(c1cc([N+](=O)[O-])[nH]n1)N1CCN(CC(O)COc2cccc3[nH]c4ccccc4c23)CC1 (stereo not drawn) [Example 36, 1-(9H-carbazol-4-yloxy)-3-[4-(5-nitro-1H-pyrazole-3-carbonyl)piperazin-1-yl]propan-2-ol] |  |
| 85.1 to 89.1 °C | O=C(c1ccco1)N1CCN(CC(O)COc2cccc3[nH]c4ccccc4c23)CC1 (stereo not drawn) [Example 37, 1-(9H-carbazol-4-yloxy)-3-[4-(2-furoyl)piperazin-1-yl]propan-2-ol] |  |
| 215 to 218 °C | O=C(c1cc2ccccc2[nH]1)N1CCN(CC(O)COc2cccc3[nH]c4ccccc4c23)CC1 (stereo not drawn) [Example 38, 1-(9H-carbazol-4-yloxy)-3-[4-(1H-indole-2-carbonyl)piperazin-1-yl]propan-2-ol] |  |
| 80 to 83 °C | O=C(c1cccs1)N1CCN(CC(O)COc2cccc3[nH]c4ccccc4c23)CC1 (stereo not drawn) [Example 39, 1-(9H-carbazol-4-yloxy)-3-[4-(thiophene-2-carbonyl)piperazin-1-yl]propan-2-ol] |  |
| 101 to 104 °C | O=C(c1ccc(-c2ccc([N+](=O)[O-])cc2)o1)N1CCN(CC(O)COc2cccc3[nH]c4ccccc4c23)CC1 (stereo not drawn) [Example 40, 1-(9H-carbazol-4-yloxy)-3-{4-[5-(4-nitrophenyl)-2-furoyl]piperazin-1 yl}propan-2-ol] |  |
| 98 to 101 °C | COc1ccc(C(=O)N2CCN(CC(O)COc3cccc4[nH]c5ccccc5c34)CC2)cc1OC (stereo not drawn) [Example 42, 1-(9H-carbazol-4-yloxy)-3-[4-(3,4-dimethoxybenzoyl)piperazin-1-yl]propan-2-ol] |  |
| 90 to 93 °C | O=C(/C=C/c1ccc2c(c1)OCO2)N1CCN(CC(O)COc2cccc3[nH]c4ccccc4c23)CC1 (stereo not drawn) [Example 45, 1-(9H-carbazol-4-yloxy)-3-{4-[(2E)-3-(1,3-benzodioxol-5-yl)acryloyl]piperazin-1-yl}propan-2-ol] |  |
| 89 to 92 °C | O=C(c1cnc2ccccc2n1)N1CCN(CC(O)COc2cccc3[nH]c4ccccc4c23)CC1 (stereo not drawn) [Example 46, 1-(9H-carbazol-4-yloxy)-3-[4-(quinoxaline-2-carbonyl)piperazin-1-yl]propan-2-ol] |  |
| 92 to 95 °C | N#Cc1ccc(C(=O)N2CCN(CC(O)COc3cccc4[nH]c5ccccc5c34)CC2)cn1 (stereo not drawn) [Example 47, 1-(9H-carbazol-4-yloxy)-3-[4-(6-cyanonicotine-3-carbonyl)piperazin-1-yl]propan-2-ol] |  |
| 70 to 73 °C | O=C(c1ccc2c(c1)OCO2)N1CCN(CC(O)COc2cccc3[nH]c4ccccc4c23)CC1 (stereo not drawn) [Example 50, 1-(9H-carbazol-4-yloxy)-3-[4-(1,3-benzodioxol-5-ylcarbonyl)piperazin-1-yl]propan-2-ol] |  |
| 112 to 114 °C | O=C(CCc1cc2ccccc2[nH]1)N1CCN(CC(O)COc2cccc3[nH]c4ccccc4c23)CC1 (stereo not drawn) [Example 51] |  |
| 93 to 96 °C | O=C(c1cc2ccccc2o1)N1CCN(CC(O)COc2cccc3[nH]c4ccccc4c23)CC1 (stereo not drawn) [Example 54, 3-[4-(1-Benzofuran-2-ylcarbonyl)piperazin-1-yl]-1-(9H-carbazol-4-yloxy)propan-2-ol] |  |
| 78 to 80 °C | O=C(c1ccc(Br)s1)N1CCN(CC(O)COc2cccc3[nH]c4ccccc4c23)CC1 (stereo not drawn) [Example 56, 3-[4-(5-Bromothiophene-2-carbonyl)piperazin-1-yl]-1-(9H-carbazol-4-yloxy) propan-2-ol] |  |
| 289 to 292 °C | COc1cccc2sc(NC(=O)CN3CCN(CC(O)COc4cccc5[nH]c6ccccc6c45)CC3)nc12 (stereo not drawn) [Example 61, 2-{4-[3-(9H-carbazol-4-yloxy)-2-hydroxypropyl]-piperazin-1-yl}-N-(4-methoxy-1,3-benzothiazol-2-yl)acetamide] |  |
| 69 to 71 °C | O=C(CN1CCN(CC(O)COc2cccc3[nH]c4ccccc4c23)CC1)Nc1ccccc1 (stereo not drawn) [Example 62, 2-{4-[3-(9H-carbazol-4-yloxy)-2-hydroxypropyl]-piperazin-1-yl}-N-phenyl acetamide] |  |
| 88 to 90 °C | O=C(c1ccc2c(c1)OCO2)N1CCC(NCC(O)COc2cccc3[nH]c4ccccc4c23)CC1 (stereo not drawn) [Example 68, 3-{[1-(1,3-Benzodioxol-5-ylcarbonyl)piperidin-4-yl]amino}-1-(9H-carbazol-4-yloxy)propan-2-ol] |  |
| 80 to 83 °C | O=C(Cc1c(F)c(F)c(F)c(F)c1F)N1CCC(NCC(O)COc2cccc3[nH]c4ccccc4c23)CC1 (stereo not drawn) [Example 69, 1-(9H-carbazol-4-yloxy)-3-{[1-(pentafluorophenyl)acetylpiperidin-4-yl]amino}propan-2-ol] |  |
| 54 to 57 °C | COc1ccc(CC(=O)N2CCC(NCC(O)COc3cccc4[nH]c5ccccc5c34)CC2)cc1 (stereo not drawn) [Example 71, 1-(9H-carbazol-4-yloxy)-3-{[1-(4-methoxyphenylacetyl)piperidin-4-yl]amino}propan-2-ol] |  |
| 183 to 185 °C | CC(=O)c1ccc(S(=O)(=O)N2CCN(CC(O)COc3cccc4[nH]c5ccccc5c34)CC2)cc1 (stereo not drawn) [Example 75, 3-[4-(4-Acetylphenylsulfonyl)piperazin-1-yl]-1-(9H-carbazol-4-yloxy)propan-2-ol] |  |
